± gives the expanded uncertainty stated by the source.

This note sets out measurements from the NIST ThermoML archive (doi:10.1021/acs.jced.9b00308).

The conditions of data set [1]: Crystal 1; DSC.
Data set [2] can be described thus: Molar enthalpy of transition or fusion. The note with it: Crystal 1; DSC.

As for `O=C1Cc2ccccc2N1` [indolin-2-one], the Triple point temperature in data set [1] is listed as 393.93 ± 4.1 K. Besides, the “Molar enthalpy of transition or fusion” value in data set [2] turned out to be 3.94 ± 0.717 kcal/mol.
